Values after ≈ are worked out from the molar mass of the structure shown.
Tested on: HeLa cells
Experiment: Inhibitory effects of compounds on HeLa cell proliferation in vitro
Type: cell-based
Conditions: Homo sapiens; exponentially growing HeLa cells, incubated with test compound for 96 hours; concentration at 50% inhibition of cell growth
Description: The inhibitory effect of various compounds of formula (1) on HeLa cell proliferation in vitro was determined according to the method described by Sunkara et al. [J. Natl Cancer Instit. 70, 505-509 (1983)]. Exponentially growing HeLa cells were incubated in the presence or absence of various concentrations of test compounds for 96 hours. IC50 values were calculated which represent the test compound concentration at 50% inhibition of cell growth.

Nc1ccn([C@@H]2O[C@H](CO)[C@@H](O)/C2=C\F)c(=O)n1 [Compound A, (E)-2′-deoxy-2′-fluoromethylidene cytidine]
IC50: 0.01 to 0.015 µg/mL (≈ 0.0389 to 0.0583 µM)

Nc1ccn([C@@H]2O[C@H](CO)[C@@H](O)/C2=C/F)c(=O)n1 [Compound B, (Z)-2′-deoxy-2′-fluoromethylidene cytidine]
IC50: 1 to 5 µg/mL (≈ 3.89 to 19.4 µM)
